One experiment has as its system VICs. Description: Calcification assay of VICs in osteogenic medium (Alizarin Red S, alkaline phosphatase). In kind it is cell-based, human. As to conditions: VICs in osteoblastic medium; for calcification / production of calcific nodules: Poly(I:C) 20 μg/mL or inhibitor 26 μM, Alizarin Red S. The procedure: For functional evaluation of osteoblastic activity, VICs were subjected to a calcification assay. Cells were cultured in osteogenic medium including 10 mmol/L beta-glycerophosphate, 10 nmol/L vitamin D3, and 10 nmol/L dexamethasone as described previously^4. The medium was changed every three days. Subsequently, supernatant was analyzed for alkaline phosphatase activity using the commercially available alkaline phosphatase assay kit (Abcam, Cambridge, UK). After careful rinsing with PBS, cells were fixed with 4% paraformaldehyde, washed with distilled water and Alizarin Red S staining solution (Alfa Aesar, Haverhill, MA) was added upon the fixed cells for 20 minutes at room temperature (RT). Imaging of the staining was performed using a Zeiss Axioplan 2 microscope (Zeiss, Oberkochen, Germany). Images were processed using Adobe Photoshop CS5.1 for Mac (Adobe Systems Inc., San Jose, CA, USA) and analyzed with ImageJ software (National Institutes of Health, Bethesda, […]).

In the next experiment the test system is zebrafish (Danio rerio). Description: Zebrafish VitD3-induced calcification model. Type of experiment: in vivo. Conditions: larvae from 5 dpf, 5 days; for VitD3-induced calcification on co-incubation: VitD3 200 ng/mL with TLR3-inhibitor 5 μg/mL, opercle and all bone structures. The procedure:
Fish were maintained and raised under standard husbandry conditions. VitD3 treatments were performed as previously described^26 with some minor modifications. Briefly: 15 animals (5 dpf) were pooled per 6-well pate and incubated for 5 days at 28° C. in 4 ml E3 medium containing 0.1% DMSO and different compounds as indicated. Larvae were fixed in 4% PFA overnight. Final concentration of compounds was 5 μg/mL for TLR3-inhibitor (Merck, Darmstadt, Germany) and 200 ng/mL VitD3 (Sigma, St. Louis, MO). Dilutions were generated from stock solutions with 10 mg/mL TLR3-INH and 200 mg/mL VitD3 in DMSO. Solutions containing VitD3 were changed every day. All experiments were done in duplicates. Alizarin Red stains were performed as described previously^27 with some minor modifications. After staining larvae were transferred to 100% glycerol and imaged. Area measurements were carried out as described^28.
Whole area: For each larva three independent ventral view images were taken with a Leica MZ16FA using standardized stereomicroscope settings. After each image the larvae were embedded anew. Data quantification was done with ImageJ. Standard white balance was used for background subtraction. Image were converted to greyscale (8 bit) and threshold was set to 225. The stained area excluding the otoliths was measured.
Opercula area: Larvae were imaged laterally from both sides using a standard microscope setting. Area measurements were performed as described above.

A further experiment addresses TLR3 (Homo sapiens, UniProt O15455). As to the kind of experiment: HEK293 hTLR3 reporter cell assay (TLR3/ISRE LUCPorter, luminometer). Type of experiment: cell-based. As to conditions: putative ligands at increasing concentrations, 24 h (biglycan 5, 10, 20 μg/ml). The procedure:
All cells were cultivated under standard conditions (37° C., supplied with 5% CO2). Passaging of the cells was performed at 70-90% confluency, and cells were only used until passage 7 as described previously^6. Polyinosinic: polycytidylic acid (Poly(I:C); Invivogen, San Diego, CA) was used to stimulate cells at a concentration of either 20 μg/mL or 5 μg/ml, depending on the assay. For blockade of TLR3, the commercially available dsRNA/TLR3 inhibitor ((R)-2-(3-Chloro-6-fluorobenzo [b] thiophene-2-carboxamido)-3-phenyl-propanoic acid) was used (Merck, Darmstadt, Germany) at a concentration of 1 μg/ml as described previously^1,7. LY294002 (Invivogen, San Diego, CA), a PI3K inhibitor, was used at a concentration of 10 μM. For blockade of IFNAR1, a specific blocking antibody (Invitrogen, Carlsbad, CA) was used at a concentration of 4 μg/ml. A stable HEK (human embryonic kidney) reporter cell line (TLR3/ISRE LUCPorter; Imgenex, USA) was purchased for luminometer assay experiments. Cells were cultivated according to the manufacturer's protocol in DMEM with 4.5 g/L glucose (Lonza, Switzerland), 10% FCS (Sigma, St. Louis, MO), penicillin/streptomycin, and 4 mM L-glutamine and […] puromycin (Gibco, USA) as selection agent. Reporter experiments were performed as described previously^8. […]

The target in experiment [1] is T1, recombinant human TLR3 ectodomain (huTLR3-ECD), residues 27-700, C-terminal 6x His tag (human, UniProt O15455 27-700).
T1 construct: also called purified TLR3 ectodomain; hTLR3-ECD
Description: size-exclusion chromatography of the mixed proteins, fractions immunoblotted. The procedure:
To obtain core protein of bovine biglycan, purchased biglycan (Sigma, St. Louis, MO) was incubated with Chondroitinase ABC (Merck, Darmstadt, Germany) at 37° C. for 2 h. Digestion of chondroitin sulfate was verified by electrophoresis and subsequent Coomassie-staining. To 185 μl of digested BGN (0.5 mg/ml) 15 μl of TLR3 (1 mg/ml) was added and incubated on ice for 30 min. The sample was subjected to size exclusion chromatography (Supedex200 increased 10/300 GL column) using 20 mM HEPES pH7.5 100 mM NaCl as running buffer. Fractions were collected and analyzed by Immunoblotting as described above.

“Also recorded” adds a separate entry of the source.

With `O=C(N[C@H](Cc1ccccc1)C(=O)O)c1sc2cc(F)ccc2c1Cl` [TLR3 inhibitor, (R)-2-(3-Chloro-6-fluorobenzo [b]thiophene-2-carboxamido)-3-phenyl-propanoic acid], the “calcification / production of calcific nodules” value was “reduced calcification” in the experiment with VICs and “reduced” in the experiment with VICs (listed as dsRNA/TLR3 complex inhibitor). In addition, in the experiment on VICs (supernatant), the “alkaline phosphatase (ALP) activity” value is given as “reduced”. Moreover, the “VitD3-induced calcification on co-incubation” value was “reduced calcification; also recorded: abolished” with zebrafish (Danio rerio) and “severely impaired calcification of the skeleton” with zebrafish (Danio rerio) (listed as Tlr3 inhibitor).

Regarding `C=C1CC[C@H](O)C/C1=C/C=C1\CCC[C@]2(C)[C@@H]([C@H](C)CCCC(C)C)CC[C@@H]12` [VitD3, vitamin D3], the “calcification of landmark bones” value in the experiment on zebrafish (Danio rerio) (VitD3 200 ng/mL alone) is “early and strong calcification of landmark bones”.

B1: rhBGN: BGN lacking chondroitin sulfate chains (protein)
chain (part 1 of 2): HHHHHH
chain (part 2 of 2): DEEASGADTSGVLDPDSVTPTYSAMCPFGCHCHLRVVQCSDLGLKSVPKEISPDTTLLDLQNNDISELRKDDFKGLQHLYALVLVNNKISKIHEKAFSPLRKLQKLYISKNHLVEIPPNLPSSLVELRIHDNRIRKVPKGVFSGLRNMNCIEMGGNPLENSGFEPGAFDGLKLNYLRISEAKLTGIPKDLPETLNELHLDHNKIQAIELEDLLRYSKLYRLGLGHNQIRMIENGSLSFLPTLRELHLDNNKLARVPSGLPDLKLLQVVYLHSNNITKVGVNDFCPMGFGVKRAYYNGISLFNNPVPYWEVQPATFRCVTDRLAIQFGNYKK
modifications: left off: small tags and cut ends
notes: BGN lacking chondroitin sulfate chains
For the molecule B1, in the experiment with TLR3, the “activation of TLR3 reporter cells” value is recorded as “did not activate TLR3”.

B2: core protein of bovine biglycan (purchased biglycan, Sigma, digested with Chondroitinase ABC) (ligand, UniProt P21809 38-369, looked up)
chain: DEEASGAETTSGIPDLDSLPPTYSAMCPFGCHCHLRVVQCSDLGLKAVPKEISPDTTLLDLQNNDISELRKDDFKGLQHLYALVLVNNKISKIHEKAFSPLRKLQKLYISKNHLVEIPPNLPSSLVELRIHDNRIRKVPKGVFSGLRNMNCIEMGGNPLENSGFEPGAFDGLKLNYLRISEAKLTGIPKDLPETLNELHLDHNKIQAIELEDLLRYSKLYRLGLGHNQIRMIENGSLSFLPTLRELHLDNNKLSRVPAGLPDLKLLQVVYLHTNNITKVGVNDFCPVGFGVKRAYYNGISLFNNPVPYWEVQPATFRCVTDRLAIQFGNYKK
modifications: chondroitin sulfate removed by Chondroitinase ABC digestion
notes: also called digested BGN; BGN
On to B2, for which, in experiment [1], the binding result was “binds”.

Values taken from patent US20250011869A1, “TLR3 INHIBITORS FOR USE IN THE TREATMENT OF DISEASES ASSOCIATED WITH CARDIOVASCULAR CALCIFICATION” (priority 2021, published 2025).
